For 22 compounds, IC50 and inhibition results are on record in ChEMBL document CHEMBL1153663, “Inhibition of human erythrocyte calpain I by novel quinolinecarboxamides” (Bioorg Med Chem Lett, 1995).

Chain of Procathepsin L (P07711 whole entry): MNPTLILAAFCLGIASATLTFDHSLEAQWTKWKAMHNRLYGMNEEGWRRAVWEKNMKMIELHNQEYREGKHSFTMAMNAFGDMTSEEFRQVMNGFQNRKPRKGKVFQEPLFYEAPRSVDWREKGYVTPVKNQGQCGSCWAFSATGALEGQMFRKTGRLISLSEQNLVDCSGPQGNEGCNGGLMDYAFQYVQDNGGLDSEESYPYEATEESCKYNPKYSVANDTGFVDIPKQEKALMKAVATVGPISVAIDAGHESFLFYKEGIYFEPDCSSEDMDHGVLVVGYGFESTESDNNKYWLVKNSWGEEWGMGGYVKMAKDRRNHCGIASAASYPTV

One test addresses Procathepsin L (Homo sapiens, UniProt P07711). The test can be described thus: In vitro inhibitory activity against cathepsin L.
Take `NC(=O)c1cn(-c2ccc(O)cc2Cl)c2cc(-c3ccncc3)ccc2c1=O`: the IC50 came out at 22 µM.
On to `NC(=O)c1cn(-c2ccc(O)cc2)c2cc(-c3ccncc3)ccc2c1=O`, for which the IC50 was 37 µM.

The target in the next test is T1, Calpain-1 catalytic subunit (Homo sapiens) (UniProt P07384).
T1 sequence (whole entry): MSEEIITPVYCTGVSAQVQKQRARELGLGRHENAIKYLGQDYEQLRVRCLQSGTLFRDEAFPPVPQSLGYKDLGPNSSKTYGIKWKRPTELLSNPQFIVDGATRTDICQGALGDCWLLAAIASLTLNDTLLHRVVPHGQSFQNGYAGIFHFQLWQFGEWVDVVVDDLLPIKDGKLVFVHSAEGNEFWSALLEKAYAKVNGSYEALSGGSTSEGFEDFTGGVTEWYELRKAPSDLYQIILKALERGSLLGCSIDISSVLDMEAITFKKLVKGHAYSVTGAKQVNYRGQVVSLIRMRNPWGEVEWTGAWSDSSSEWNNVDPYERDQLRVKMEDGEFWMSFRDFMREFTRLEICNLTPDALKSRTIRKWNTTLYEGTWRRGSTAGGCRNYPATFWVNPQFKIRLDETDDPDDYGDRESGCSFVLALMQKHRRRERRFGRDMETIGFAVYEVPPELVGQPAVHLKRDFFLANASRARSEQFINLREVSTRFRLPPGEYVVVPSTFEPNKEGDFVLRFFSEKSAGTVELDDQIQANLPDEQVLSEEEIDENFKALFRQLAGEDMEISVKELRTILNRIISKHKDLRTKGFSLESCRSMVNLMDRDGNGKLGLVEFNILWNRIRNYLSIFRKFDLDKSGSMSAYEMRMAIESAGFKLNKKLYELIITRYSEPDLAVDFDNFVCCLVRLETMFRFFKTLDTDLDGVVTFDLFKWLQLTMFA
The test can be described thus: In vitro inhibitory activity against human erythrocyte Calpain 1 at a concentration of 50 uM.
As for `O=C(NCCO)c1cn(-c2ccc(O)cc2)c2cc(-c3ccncc3)ccc2c1=O`, the inhibition was under 10%.
Still for that read-out and setting: as for `Cc1cc(-n2cc(C(N)=O)c(=O)c3ccc(-c4ccncc4)cc32)cc(C)c1O`, the figure is under 10%; as for `Cc1cncc(C)c1-c1ccc2c(=O)c(C(N)=O)cn(-c3ccc(O)cc3Cl)c2c1`, under 10%.
For the compound `CNC(=O)c1cn(-c2ccc(O)cc2)c2cc(-c3ccncc3)ccc2c1=O`, the inhibition was under 10%.
Regarding `O=C(NO)c1cn(-c2ccc(O)cc2)c2cc(-c3ccncc3)ccc2c1=O`, the inhibition was under 10%.
Still for that read-out and setting: as for `CN(C)C(=O)c1cn(-c2ccc(O)cc2)c2cc(-c3ccncc3)ccc2c1=O`, the figure is under 10%; as for `NC(=O)c1cn(-c2ccc(O)cc2)c2ccccc2c1=O`, under 10%; as for `NC(=O)c1cn(-c2ccc(O)cc2)c2cc(-c3ccccc3)ccc2c1=O`, under 10%.

For the next test, the target named is T2, Calpain-1 catalytic subunit (Homo sapiens, UniProt P07384).
T2 sequence (P07384 whole entry): T1 sequence (whole entry)
The test can be described thus: In vitro inhibitory activity against human erythrocyte Calpain 1.
For the compound `NC(=O)c1cn(-c2ccc(O)cc2C(F)(F)F)c2cc(-c3ccncc3)ccc2c1=O`, the half-maximal inhibitory concentration (IC50) amounted to 20 µM.
Still for that read-out and setting: in the case of `NC(=O)c1cn(-c2ccc(O)cc2Cl)c2cc(-c3ccoc3)ccc2c1=O` it was 2 µM; in that of `O=C(O)c1cn(-c2ccc(O)cc2)c2cc(-c3ccncc3)ccc2c1=O`, 20 µM.
Same read-out and setting: in the case of `NC(=O)c1cn(-c2ccc(O)cc2Cl)c2cc(-c3ccccn3)ccc2c1=O` it was 30 µM; in that of `NC(=O)c1cn(-c2ccc(O)cc2Cl)c2cc(-c3ccncc3)ccc2c1=O`, 0.5 µM.
The compound `NC(=O)c1cn(-c2ccc(O)cc2Cl)c2cc(-c3ccnc(F)c3)ccc2c1=O` showed an IC50 of 30 µM.
As to `NC(=O)c1cn(-c2ccc(O)cc2Cl)c2cc(-c3ccncc3Cl)ccc2c1=O`, it took 2 µM to reach half-maximal inhibition (IC50).
Compound `NC(=O)c1cn(-c2ccc(O)cc2Cl)c2cc(-c3cccnn3)ccc2c1=O` registered an IC50 of 2 µM.
Still for that read-out and setting: in the case of `Cc1cc(O)ccc1-n1cc(C(N)=O)c(=O)c2ccc(-c3ccncc3)cc21` it was 0.5 µM; in that of `CC(=O)N[C@@H](CC(C)C)C(=O)N[C@@H](CC(C)C)C(=O)N[C@H](C=O)CCCNC(=N)N` [LEUPEPTIN], 0.3 µM; in that of `NC(=O)c1cn(-c2ccc(O)cc2F)c2cc(-c3ccncc3)ccc2c1=O`, 7 µM.
On the same count and under the same terms, in the case of `NC(=O)c1cn(-c2ccc(O)cc2Cl)c2cc(-n3cccn3)ccc2c1=O` it was 0.6 µM.
For `NC(=O)c1cn(-c2ccc(O)cc2Cl)c2cc(-c3cccnc3)ccc2c1=O`, 10 µM corresponded to half-maximal inhibition (IC50).

For the next test, the target named is Cathepsin B (Homo sapiens, UniProt P07858). The test can be described thus: In vitro inhibitory activity against Cathepsin B.
`NC(=O)c1cn(-c2ccc(O)cc2Cl)c2cc(-c3ccncc3)ccc2c1=O`: inhibition was half-maximal at 25 µM (IC50).
Same read-out and setting: as for `NC(=O)c1cn(-c2ccc(O)cc2)c2cc(-c3ccncc3)ccc2c1=O`, the figure is 32 µM.

The IC50 is the point on the concentration scale where inhibition reaches its midpoint. As a reminder, the inhibition is the percentage by which the read-out fell short of the control. High values mean a strong effect, low ones a weak effect.
